These results are taken from ChEMBL document CHEMBL1152560, “Substituted 2-arylbenzothiazoles as kinase inhibitors: hit-to-lead optimization” (Bioorg Med Chem, 2009).

The structures appear in SMILES notation.

Assay [1] deals with T1, Mitogen-activated protein kinase 12 (Homo sapiens) (UniProt P53778).
T1 sequence (whole entry): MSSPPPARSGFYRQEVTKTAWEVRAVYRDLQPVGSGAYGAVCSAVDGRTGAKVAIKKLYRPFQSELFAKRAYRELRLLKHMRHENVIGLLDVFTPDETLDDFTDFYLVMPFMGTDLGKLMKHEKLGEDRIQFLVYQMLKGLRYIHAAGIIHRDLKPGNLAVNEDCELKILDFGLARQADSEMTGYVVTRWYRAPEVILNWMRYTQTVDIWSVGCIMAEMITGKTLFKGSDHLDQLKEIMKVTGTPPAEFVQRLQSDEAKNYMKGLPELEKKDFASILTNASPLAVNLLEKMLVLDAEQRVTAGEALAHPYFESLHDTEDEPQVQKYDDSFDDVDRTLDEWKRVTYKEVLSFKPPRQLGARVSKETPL
Nature of the assay: Residual activity of p38-gamma at 1 uM by microplate scintillation counting.

Assay [2] concerns the target T2, Serine/threonine-protein kinase DCLK2 (Homo sapiens) (UniProt Q8N568).
T2 sequence (whole entry): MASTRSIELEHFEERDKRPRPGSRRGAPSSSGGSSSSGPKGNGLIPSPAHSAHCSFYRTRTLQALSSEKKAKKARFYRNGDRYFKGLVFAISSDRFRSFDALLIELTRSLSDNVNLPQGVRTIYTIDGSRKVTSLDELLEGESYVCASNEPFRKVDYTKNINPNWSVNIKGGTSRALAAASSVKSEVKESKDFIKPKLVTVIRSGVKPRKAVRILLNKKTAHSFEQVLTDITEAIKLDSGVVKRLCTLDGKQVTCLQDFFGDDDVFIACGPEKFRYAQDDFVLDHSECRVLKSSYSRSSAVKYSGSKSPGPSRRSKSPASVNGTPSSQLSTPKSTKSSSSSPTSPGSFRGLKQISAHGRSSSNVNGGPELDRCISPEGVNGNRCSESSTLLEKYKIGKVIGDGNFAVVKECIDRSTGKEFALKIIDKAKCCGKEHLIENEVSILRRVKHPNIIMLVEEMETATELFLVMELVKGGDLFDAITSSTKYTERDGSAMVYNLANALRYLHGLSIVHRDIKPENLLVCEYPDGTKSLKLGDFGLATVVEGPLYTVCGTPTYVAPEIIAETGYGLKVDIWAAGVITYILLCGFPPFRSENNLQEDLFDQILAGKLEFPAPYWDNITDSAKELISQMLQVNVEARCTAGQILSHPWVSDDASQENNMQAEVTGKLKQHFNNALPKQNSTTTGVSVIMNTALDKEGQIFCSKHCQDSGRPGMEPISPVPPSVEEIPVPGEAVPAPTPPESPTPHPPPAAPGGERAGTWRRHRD
The assay can be described thus: Residual activity of DCAMKL2 at 10 uM by microplate scintillation counting.

The target of assay [3] is RAC-alpha serine/threonine-protein kinase (Homo sapiens) (UniProt P31749). The assay can be described thus: Residual activity of AKT1 at 1 uM by microplate scintillation counting.
Assay [4] concerns the target Activated CDC42 kinase 1 (Homo sapiens) (UniProt Q07912). The assay can be described thus: Residual activity of ACK1 at 0.1 uM by microplate scintillation counting.
Assay [5] has as its target T3, Activin receptor type-1 (Homo sapiens) (UniProt Q04771).
T3 sequence (whole entry): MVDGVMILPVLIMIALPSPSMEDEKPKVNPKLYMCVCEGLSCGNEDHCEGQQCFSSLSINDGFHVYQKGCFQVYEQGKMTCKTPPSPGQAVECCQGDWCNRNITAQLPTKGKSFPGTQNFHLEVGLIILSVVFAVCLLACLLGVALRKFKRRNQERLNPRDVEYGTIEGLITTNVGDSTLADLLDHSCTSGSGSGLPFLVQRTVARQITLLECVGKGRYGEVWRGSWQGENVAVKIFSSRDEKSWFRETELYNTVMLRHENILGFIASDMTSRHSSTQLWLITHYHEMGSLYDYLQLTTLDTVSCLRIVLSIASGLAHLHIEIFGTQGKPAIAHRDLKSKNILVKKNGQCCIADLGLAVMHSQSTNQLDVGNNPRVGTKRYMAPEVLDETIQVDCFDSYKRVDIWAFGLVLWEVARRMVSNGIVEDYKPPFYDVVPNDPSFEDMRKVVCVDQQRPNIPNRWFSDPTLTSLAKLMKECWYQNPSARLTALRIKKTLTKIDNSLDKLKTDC
The assay can be described thus: Residual activity of ACV-R1 at 0.1 uM by microplate scintillation counting.

The target in assay [6] is T4, Serine/threonine-protein kinase PLK4 (Homo sapiens) (UniProt O00444).
T4 sequence (whole entry): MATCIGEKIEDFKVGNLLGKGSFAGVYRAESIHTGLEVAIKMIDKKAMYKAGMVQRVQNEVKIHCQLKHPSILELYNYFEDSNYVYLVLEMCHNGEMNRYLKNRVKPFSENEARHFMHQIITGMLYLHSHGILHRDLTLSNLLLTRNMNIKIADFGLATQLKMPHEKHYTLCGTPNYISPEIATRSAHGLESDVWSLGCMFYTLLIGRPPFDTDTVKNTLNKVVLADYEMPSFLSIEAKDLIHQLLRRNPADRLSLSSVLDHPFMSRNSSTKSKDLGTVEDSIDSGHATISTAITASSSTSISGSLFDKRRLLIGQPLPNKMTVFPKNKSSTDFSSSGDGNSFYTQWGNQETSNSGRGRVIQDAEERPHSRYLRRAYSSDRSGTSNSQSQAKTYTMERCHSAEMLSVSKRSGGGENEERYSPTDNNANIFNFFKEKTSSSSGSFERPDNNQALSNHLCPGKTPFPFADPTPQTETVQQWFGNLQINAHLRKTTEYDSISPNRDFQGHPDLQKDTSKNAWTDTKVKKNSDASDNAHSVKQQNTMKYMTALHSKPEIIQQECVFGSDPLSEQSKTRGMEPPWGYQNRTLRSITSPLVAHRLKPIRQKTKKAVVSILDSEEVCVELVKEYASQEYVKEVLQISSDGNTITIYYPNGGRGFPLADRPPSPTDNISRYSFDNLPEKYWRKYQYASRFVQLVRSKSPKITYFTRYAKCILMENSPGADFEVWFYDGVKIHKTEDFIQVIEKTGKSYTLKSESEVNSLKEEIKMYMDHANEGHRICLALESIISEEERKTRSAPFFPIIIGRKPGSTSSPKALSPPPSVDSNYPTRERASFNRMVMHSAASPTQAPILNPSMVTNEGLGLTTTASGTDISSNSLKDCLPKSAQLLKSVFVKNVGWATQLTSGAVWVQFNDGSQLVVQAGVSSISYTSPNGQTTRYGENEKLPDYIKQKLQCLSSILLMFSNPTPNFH
Nature of the assay: Residual activity of SAK at 0.1 uM by microplate scintillation counting.

The target in assay [7] is SRSF protein kinase 1 (Homo sapiens) (UniProt Q96SB4). Nature of the assay: Residual activity of SRPK1 at 0.1 uM by microplate scintillation counting.
Sequence of SRSF protein kinase 1 (Homo sapiens) (Q96SB4 whole entry): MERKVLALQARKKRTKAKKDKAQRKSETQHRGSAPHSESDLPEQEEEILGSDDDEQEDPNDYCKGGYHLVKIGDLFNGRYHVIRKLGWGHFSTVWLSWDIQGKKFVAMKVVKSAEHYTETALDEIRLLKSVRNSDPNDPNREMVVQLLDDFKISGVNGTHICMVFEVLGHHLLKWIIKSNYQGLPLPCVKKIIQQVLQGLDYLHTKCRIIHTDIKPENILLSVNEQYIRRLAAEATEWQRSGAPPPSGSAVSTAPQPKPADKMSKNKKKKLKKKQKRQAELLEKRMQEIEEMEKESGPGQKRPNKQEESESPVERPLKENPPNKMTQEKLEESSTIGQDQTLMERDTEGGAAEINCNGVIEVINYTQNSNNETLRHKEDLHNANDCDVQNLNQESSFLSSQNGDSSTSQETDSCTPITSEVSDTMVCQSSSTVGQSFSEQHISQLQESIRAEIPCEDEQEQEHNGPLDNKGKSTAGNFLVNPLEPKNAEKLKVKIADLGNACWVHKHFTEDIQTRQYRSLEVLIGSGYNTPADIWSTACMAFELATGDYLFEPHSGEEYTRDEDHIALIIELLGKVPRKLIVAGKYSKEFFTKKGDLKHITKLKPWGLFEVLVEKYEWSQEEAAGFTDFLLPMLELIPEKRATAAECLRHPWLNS

Sequence of Activated CDC42 kinase 1 (Homo sapiens) (Q07912 whole entry, looked up): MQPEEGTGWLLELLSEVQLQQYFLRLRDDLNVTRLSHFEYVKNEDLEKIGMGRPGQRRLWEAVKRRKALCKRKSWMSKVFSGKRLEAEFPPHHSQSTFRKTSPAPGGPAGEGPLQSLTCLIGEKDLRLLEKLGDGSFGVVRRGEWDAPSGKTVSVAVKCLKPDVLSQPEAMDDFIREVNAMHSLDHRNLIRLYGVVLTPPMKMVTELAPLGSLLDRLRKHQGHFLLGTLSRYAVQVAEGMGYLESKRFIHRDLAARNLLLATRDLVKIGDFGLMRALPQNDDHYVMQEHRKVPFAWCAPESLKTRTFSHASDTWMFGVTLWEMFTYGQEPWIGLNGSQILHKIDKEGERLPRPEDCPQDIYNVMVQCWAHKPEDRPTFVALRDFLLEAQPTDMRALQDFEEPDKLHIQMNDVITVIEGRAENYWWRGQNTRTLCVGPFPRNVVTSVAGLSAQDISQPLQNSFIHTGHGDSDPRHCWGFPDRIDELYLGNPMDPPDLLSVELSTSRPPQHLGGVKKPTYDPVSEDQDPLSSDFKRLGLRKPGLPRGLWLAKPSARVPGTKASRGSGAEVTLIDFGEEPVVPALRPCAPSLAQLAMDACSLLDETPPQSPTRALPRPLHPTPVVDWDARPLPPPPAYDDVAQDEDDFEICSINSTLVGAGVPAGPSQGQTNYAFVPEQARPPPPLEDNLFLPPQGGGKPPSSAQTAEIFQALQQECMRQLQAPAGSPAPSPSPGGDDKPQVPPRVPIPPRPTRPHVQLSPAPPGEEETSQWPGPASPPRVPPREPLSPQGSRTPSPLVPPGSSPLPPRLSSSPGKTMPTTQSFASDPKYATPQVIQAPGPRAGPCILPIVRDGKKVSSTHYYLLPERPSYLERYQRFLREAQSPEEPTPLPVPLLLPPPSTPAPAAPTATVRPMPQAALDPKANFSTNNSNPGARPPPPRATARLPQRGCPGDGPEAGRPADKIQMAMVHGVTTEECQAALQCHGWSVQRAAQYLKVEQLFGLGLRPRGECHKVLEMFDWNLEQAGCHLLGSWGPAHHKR
Sequence of RAC-alpha serine/threonine-protein kinase (Homo sapiens) (P31749 whole entry): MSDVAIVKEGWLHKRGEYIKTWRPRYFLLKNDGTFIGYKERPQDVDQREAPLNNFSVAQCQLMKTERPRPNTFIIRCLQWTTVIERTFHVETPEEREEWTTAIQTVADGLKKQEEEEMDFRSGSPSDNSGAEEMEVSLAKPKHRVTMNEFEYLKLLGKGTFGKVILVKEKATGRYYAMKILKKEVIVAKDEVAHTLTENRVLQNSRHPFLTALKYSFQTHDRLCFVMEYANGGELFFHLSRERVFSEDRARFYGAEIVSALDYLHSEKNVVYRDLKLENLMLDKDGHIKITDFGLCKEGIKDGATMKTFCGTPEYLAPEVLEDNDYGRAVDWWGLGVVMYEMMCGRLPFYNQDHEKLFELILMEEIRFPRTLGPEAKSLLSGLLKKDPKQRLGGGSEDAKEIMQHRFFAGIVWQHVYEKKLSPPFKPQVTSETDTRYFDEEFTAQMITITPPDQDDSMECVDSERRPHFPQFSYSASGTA

As to `COc1cc2c(Oc3ccc(-c4nc5ccccc5s4)cc3)ncnc2cc1OCCCN1CCN(C)CC1`, the residual activity was determined as 105% in assay [1]; 93% in assay [2]; 109% in assay [3]; 96% in assay [4]; 89% in assay [5]; 63% in assay [6]. Besides, the residual activity in assay [7] is 96%.
With `COc1cc2c(Oc3ccc(-c4nc5ccccc5s4)cc3)ncnc2cc1OCCCN1CCCC1`, the residual activity is 112% in assay [1]; 97% in assay [2]; 97% in assay [3]; 105% in assay [4]; 91% in assay [5]; 56% in assay [6]. For the same compound, the residual activity in assay [7] is 103%.
Regarding `COc1cc2c(Oc3ccc(-c4nc5ccccc5s4)cc3F)ncnc2cc1OCCCN1CCN(C)CC1`, the residual activity in assay [1] is 125%; in assay [2], 115%; in assay [3] it was 100%; in assay [4] it was 87%; in assay [5], 97%; in assay [6], 80%. Moreover, the residual activity in assay [7] is 91%.
